PubChem BioAssay (NCI)
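A five-concentration, 48-hour dose response in 96-well plates underlies each endpoint, interpolated linearly between surrounding concentrations. The concentration for 50% growth inhibition is given as GI50. At the TGI there is no net growth.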

What was measured:
Assay in all cases: inhibition of tumour cell growth, NCI panel, 48 h
IGROV1 ovarian = system: IGROV1 ovarian
K-562 leukemia = system: K-562 leukemia
M14 melanoma = system: M14 melanoma
RPMI-8226 leukemia = system: RPMI-8226 leukemia
RXF 393 renal = system: RXF 393 renal
SR leukemia = system: SR leukemia
UACC-257 melanoma = system: UACC-257 melanoma
UO-31 renal = system: UO-31 renal
SK-MEL-28 melanoma = system: SK-MEL-28 melanoma
HCC-2998 colon = system: HCC-2998 colon

SMILES | TGI (IGROV1 ovarian) | TGI (K-562 leukemia) | TGI (M14 melanoma) | TGI (RPMI-8226 leukemia) | TGI (RXF 393 renal) | TGI (SR leukemia) | TGI (UACC-257 melanoma) | TGI (UO-31 renal) | GI50 (IGROV1 ovarian) | GI50 (K-562 leukemia) | GI50 (M14 melanoma) | GI50 (RPMI-8226 leukemia) | GI50 (RXF 393 renal) | GI50 (SK-MEL-28 melanoma) | GI50 (SR leukemia) | GI50 (UACC-257 melanoma) | GI50 (UO-31 renal) | TGI (SK-MEL-28 melanoma) | GI50 (HCC-2998 colon) | TGI (HCC-2998 colon)
CC(C)(C)[Si](C)(C)Oc1ccc(C2CNC(=O)C23CCC(=O)N3Cc2ccccc2)cc1 (stereo unspecified) | 31.6 µM | > 100 µM | 35 µM | 18.8 µM | 23.2 µM | > 100 µM | 25.7 µM | 32.9 µM | – | – | – | – | – | – | – | – | – | – | – | –
NCCCn1c2c(c3ccc([N+](=O)[O-])cc3c1=O)C(=O)c1ccccc1-2 | > 50 µM | – | 1.06 µM | – | 2.1 µM | > 50 µM | > 16.6 µM | > 50 µM | 0.215 µM | 0.0335 µM | 0.161 µM | 0.0284 µM | 0.709 µM | 0.497 µM | 0.005 µM | 0.495 µM | 0.11 µM | – | – | –
CC(=O)NNc1nc(-c2ccc([N+](=O)[O-])cc2)c(C#N)c(=O)n1C | 35 µM | 89.5 µM | > 100 µM | > 100 µM | > 100 µM | > 100 µM | > 100 µM | > 100 µM | – | – | – | – | – | – | – | – | – | > 100 µM | – | –
COc1cc(C2CC(c3cccc(Nc4ccncc4)c3)=NN2c2ccc(Cl)cc2)cc(OC)c1OC (stereo unspecified) | – | 4.71 µM | – | – | – | – | 3.84 µM | 2.37 µM | – | 1.81 µM | – | – | – | 1.68 µM | – | 1.96 µM | 1.15 µM | 3.12 µM | 1.54 µM | 2.91 µM
CCOC(=O)c1c2c(n(Cc3ccccc3)c1C)C(=O)C(=O)c1ccccc1-2 | > 100 µM | > 100 µM | 0.966 µM | 0.83 µM | – | – | 0.285 µM | > 100 µM | – | – | – | – | – | – | – | – | – | 0.601 µM | – | 1.17 µM
Oc1cn(-c2ccc(Cl)cc2)nc1-c1n[nH]c(=S)n1-c1ccccc1 | 22.2 µM | > 100 µM | 20.4 µM | > 100 µM | 36.9 µM | 94 µM | > 100 µM | 62.7 µM | – | – | – | – | – | – | – | – | – | > 100 µM | – | –
Cc1cc2c(cc1C(=O)c1ccc(N)cc1)OCO2 | > 100 µM | > 100 µM | > 100 µM | > 100 µM | – | > 100 µM | > 100 µM | > 100 µM | – | – | – | – | – | – | – | – | – | – | – | –
CN(C)C(=O)/C=C/c1c[nH]c(=O)[nH]c1=O | > 500 µM | > 500 µM | – | > 316 µM | > 500 µM | – | > 500 µM | > 500 µM | – | – | – | – | – | – | – | – | – | > 500 µM | – | > 500 µM
COc1ccc(-c2nc3ncccn3c2-c2ccc(SC)cc2)cc1 | 8.15 µM | > 100 µM | 12.2 µM | 29.2 µM | – | 10.6 µM | > 100 µM | 66.6 µM | – | – | – | – | – | – | – | – | – | > 100 µM | – | –
COc1ccc2c(c1)CCCN2CCCCCCCCCCN(CCC(C)C)CCC(C)C | 27.7 µM | 40 µM | 27.2 µM | 6.18 µM | – | – | 32.5 µM | 10.2 µM | – | – | – | – | – | – | – | – | – | 27.2 µM | – | 19.2 µM
NCCc1cc(O)c(O)cc1O | 38.2 µM | > 80.5 µM | 92.5 µM | 39.3 µM | 97.5 µM | 31 µM | 62.1 µM | 51.2 µM | – | – | – | – | – | – | – | – | – | 97.5 µM | – | > 100 µM
CCc1nc(N)nc(N)c1-c1ccc([N+](C)(C)C)cc1 | > 100 µM | > 100 µM | > 100 µM | > 100 µM | > 100 µM | > 100 µM | > 100 µM | > 100 µM | – | – | – | – | – | – | – | – | – | > 100 µM | – | > 100 µM
COc1cc(/C=C/C(=O)Oc2ccc(NC(C)=O)cc2)ccc1C(=O)O/C=C/c1ccccc1 | > 100 µM | > 31.6 µM | – | > 100 µM | > 100 µM | – | > 100 µM | > 100 µM | – | – | – | – | – | – | – | – | – | > 100 µM | – | > 100 µM
O=C1NI(C#Cc2ccccc2)c2ccccc21 | > 100 µM | > 100 µM | > 100 µM | > 100 µM | – | > 100 µM | > 100 µM | > 100 µM | – | – | – | – | – | – | – | – | – | > 100 µM | – | –
C[C@H]1C(=O)O[C@@H]2CCN3CC=C(COC(=O)[C@](C)(O)[C@@]1(C)O)[C@H]23 | > 100 µM | > 100 µM | > 100 µM | > 100 µM | – | – | > 100 µM | > 100 µM | – | – | – | – | – | – | – | – | – | > 100 µM | – | > 100 µM
COc1ccc(/C(Cl)=C(\C=O)c2ccc(OC)cc2)cc1 | > 100 µM | > 100 µM | > 100 µM | > 100 µM | > 100 µM | 78.8 µM | > 100 µM | > 100 µM | – | – | – | – | – | – | – | – | – | – | – | > 100 µM
Nc1n[nH]c(=O)c2c1c(I)cn2C1OC(CO)C(O)C1O (stereo unspecified) | > 100 µM | > 100 µM | 18.8 µM | 4.53 µM | 3.22 µM | 1.33 µM | 13.4 µM | 5.86 µM | – | – | – | – | – | – | – | – | – | 3.47 µM | – | 7.45 µM
O=P1(c2ccccc2)Nc2ccccc2SSc2ccccc2N1 | 38.2 µM | 51.4 µM | – | 45.3 µM | 34.5 µM | – | 30.3 µM | 27.2 µM | – | – | – | – | – | – | – | – | – | 34.3 µM | – | 37.6 µM
O=C(Nc1ccc([N+](=O)[O-])cc1[N+](=O)[O-])C(=O)C(C(=O)c1ccc2ccccc2c1)C1OC(=O)c2ccccc21 (stereo unspecified) | 43.5 µM | 38.8 µM | 30.3 µM | 68.6 µM | 27.3 µM | 16.7 µM | 58 µM | 27.7 µM | – | – | – | – | – | – | – | – | – | 48 µM | – | 25 µM
